Measured values taken from paper PMC5974779, “Prediction of Drug-Induced Hepatotoxicity Using Long-Term Stable Primary Hepatic 3D Spheroid Cultures in Chemically Defined Conditions” (Toxicological Sciences, 2018).
Read-outs that look alike come from different tables or passages of the source.

Assays:
[1] = system: PHH spheroids (hanging-drop); settings: cited from earlier work
PHH 2D sandwich cultures = settings: cited from earlier work
[2] = system: primary human hepatocytes (PHH) 3D spheroids
[3] = ref DrugBank and Prescribers' Digital Reference database; cited from earlier work
clinical DILI in man = settings: cited from earlier work; for Clinical DILI classification (Figure 5): structural analogue pairs, 2008 and others
in vitro = settings: human
[4] = cited from earlier work
[5] = system: primary human hepatocytes (PHH) 3D spheroids; test: CD-spheroid hepatotoxicity: ATP viability (CellTiter-Glo) of PHH 3D spheroids after 14 days repeated exposure at 1×, 5×, 20× cmax
[6] = system: CD1 mouse primary hepatocyte 3D spheroids; test: Animal hepatocyte spheroid hepatotoxicity (ATP viability, 14 days), CD1 mouse; format: cell-based; settings: CD1 mouse hepatocyte spheroids, 1×, 5×, 20× human cmax, 14 days
[7] = system: Gottingen minipig primary hepatocyte 3D spheroids; test: Animal hepatocyte spheroid hepatotoxicity (ATP viability, 14 days), minipig; format: cell-based; settings: minipig hepatocyte spheroids, 1×, 5×, 20× human cmax, 14 days
[8] = system: C57BL/6 mouse primary hepatocyte 3D spheroids; test: Animal hepatocyte spheroid hepatotoxicity (ATP viability, 14 days), C57BL/6 (BL6) mouse; format: cell-based; settings: C57BL/6 mouse hepatocyte spheroids, 1×, 5×, 20× human cmax, 14 days
[9] = system: rhesus monkey primary hepatocyte 3D spheroids; test: Animal hepatocyte spheroid hepatotoxicity (ATP viability, 14 days), rhesus monkey; format: cell-based; settings: rhesus monkey hepatocyte spheroids, 1×, 5×, 20× human cmax, 14 days
[10] = system: Wistar rat primary hepatocyte 3D spheroids; test: Animal hepatocyte spheroid hepatotoxicity (ATP viability, 14 days), Wistar rat; format: cell-based; settings: Wistar rat hepatocyte spheroids, 1×, 5×, 20× human cmax, 14 days
[11] = PHH hanging-drop spheroids, 100x Cmax, ref Proctor 2017
[12] = PHH 2D sandwich cultures, 100x Cmax, ref Xu 2008
[13] = therapeutic total cmax, ref PMID
[14] = PHH spheroids in chemically defined conditions, 20x Cmax
[15] = DILI classification score, ref Suzuki et al. (2010)
[16] = FDA drug labeling DILI score, ref Chen et al., 2011
[17] = clinical DILI classification in man (POS/NEG)
[18] = clinical DILI classification used in this study, Supplementary Table 2, ref Chen et al., 2011, Guo et al., 2005, O'Brien et al., 2006, Sakatis et al., 2012, Suzuki et al., 2010, Xu et al., 2008
[19] = clinical DILI classification, Supplementary Table 1, ref Chen et al., 2011, Guo et al., 2005, O'Brien et al., 2006, Sakatis et al., 2012, Suzuki et al., 2010, Xu et al., 2008
[20] = clinical DILI classification, ref Xu et al. (2008)
[21] = clinical hepatotoxicity classification, ref Sakatis et al. (2012)
[22] = reported pattern of liver damage, Supplementary Table 2, ref literature
[23] = DILI classification score, ref Guo et al. (2005)
[24] = FDA drug labeling DILI concern, ref Chen et al., 2011
[25] = ref Chen et al., 2011, Xu et al.

| Compound | Hanging-drop spheroids (Proctor 2017) 100x [1, 11] | 2Dsw (Xu 2008) 100x (PHH 2D sandwich cultures; [12]) | Chemically defined spheroids (this study) 20x [2] | Extent of hepatic metabolism [3] | Classified as (clinical DILI in man; in vivo) | DILI in vivo (clinical DILI in man; in vivo) | Sakatis et al. (2012) (clinical DILI in man; in vivo) | Type of DILI (clinical DILI in man; in vivo) | Cmax [4, 13] | Chemically defined spheroids (this study) 20x [5, 14] | hepatotoxicity evaluation in spheroids [6] | FDA (0-8) (clinical DILI in man; [16]) | DILI in vivo (clinical DILI in man; [17]) | Classified as (clinical DILI in man; [18]) | DILI in vivo (clinical DILI in man; [19]) | Xu et al. (2008) (clinical DILI in man; [20]) | Type of DILI (clinical DILI in man; [22]) | hepatotoxicity evaluation in spheroids [9] | hepatotoxicity evaluation in spheroids [10] | Guo et al. (2005) (clinical DILI in man; [23]) | other results |
| --- | --- | --- | --- | --- | --- | --- | --- | --- | --- | --- | --- | --- | --- | --- | --- | --- | --- | --- | --- | --- | --- |
| Cn1cnc([N+](=O)[O-])c1Sc1ncnc2nc[nH]c12 [Azathioprine] | Positive | Positive | Positive | Extensive | POS | POS | Hepatotoxic | Cholestatic injury or Mixed hepatitis | 7210 nM | – | – | – | – | – | – | – | – | – | – | – | Clinical DILI class (panel heading of Figure 4) (clinical DILI in man; in vivo): High DILI concern; FDA (0-8) (clinical DILI in man; in vivo): 5; FDA (Severity) (clinical DILI in man; in vivo): less DILI concern; Guo et al. (2005) (clinical DILI in man; in vivo): 3; O'Brien et al. (2003) (clinical DILI in man; in vivo): Moderately; Suzuki et al. (2010) (clinical DILI in man; in vivo): 1; Xu et al. (2008) (clinical DILI in man; in vivo): Positive; viability at 14 days, 1 × cmax (in vitro): < 10% |
| CC(COc1ccccc1)N(CCCl)Cc1ccccc1 (stereo not drawn) [Phenoxybenzamine] | – | – | – | – | NEG | NEG | non-hepatotixic | Non-hepatotoxic | – | Negative | – | – | – | – | – | – | – | – | – | – | Hanging-drop spheroids (Proctor 2017) 100x [1]: Negative; 2Dsw (Xu 2008) 100x (PHH 2D sandwich cultures): Negative; Clinical DILI class (panel heading of Figure 4) (clinical DILI in man; in vivo): DILI negative; FDA (0-8) (clinical DILI in man; in vivo): 0; FDA (Severity) (clinical DILI in man; in vivo): no DILI concern; Xu et al. (2008) (clinical DILI in man; in vivo): Negative; Cmax ([4]; human, in vivo): 180 nM |
| C1CCC(C(CC2CCCCN2)C2CCCCC2)CC1 (stereo not drawn) [Perhexiline] | Positive | Positive | Positive | Extensive | – | – | – | – | – | – | flagged as hepatotoxic | Withdrawn | POS | POS | POS | Positive | Hepatocellular injury | flagged as hepatotoxic | flagged as hepatotoxic | – | Suzuki et al. (2010) (clinical DILI in man; [15]): 3; Sakatis et al. (2012) (clinical DILI in man; [21]): Hepatotoxic; hepatotoxicity evaluation in spheroids [7]: flagged as hepatotoxic; hepatotoxicity evaluation in spheroids [8]: flagged as hepatotoxic |
| Cc1c(C)c2c(c(C)c1O)CCC(C)(COc1ccc(CC3SC(=O)NC3=O)cc1)O2 (stereo not drawn) [Troglitazone] | Positive | Positive | Positive | Extensive | – | – | – | – | 6080 nM | – | flagged as hepatotoxic | Withdrawn | POS | POS | POS | Positive | Hepatocellular injury or Cholestatic injury | flagged as hepatotoxic | flagged as hepatotoxic | 3 | hepatotoxicity evaluation in CD-spheroids [2]: clearly detected; Suzuki et al. (2010) (clinical DILI in man; [15]): 3; FDA (Severity) (clinical DILI in man; [24]): most DILI concern; Sakatis et al. (2012) (clinical DILI in man; [21]): Hepatotoxic; Clinical DILI classification (Figure 5) (clinical DILI in man; [25]): DILI positive; hepatotoxicity evaluation in spheroids [7]: flagged as hepatotoxic; hepatotoxicity evaluation in spheroids [8]: flagged as hepatotoxic |
| CC(CCc1ccc(O)cc1)NCCc1ccc(O)c(O)c1 (stereo not drawn) [Dobutamine] | – | Negative | – | Extensive | – | – | – | – | 1340 nM | Negative | – | 0 | NEG | NEG | NEG | Negative | Non-hepatotoxic | – | – | – | FDA (Severity) (clinical DILI in man; [24]): no DILI concern |
| O=C(c1ccc(OCCN2CCCCC2)cc1)c1c(-c2ccc(O)cc2)sc2cc(O)ccc12 [Raloxifene] | – | Negative | Negative | – | NEG | NEG | non-hepatotixic | Non-hepatotoxic | 1 nM | – | incorrectly flagged as hepatotoxic | – | – | – | – | – | – | mild but significant toxicity | – | – | Clinical DILI class (panel heading of Figure 4) (clinical DILI in man; in vivo): DILI negative; FDA (0-8) (clinical DILI in man; in vivo): 0; Xu et al. (2008) (clinical DILI in man; in vivo): Negative |
| Aflatoxin B1 | – | – | – | – | POS | POS | – | Hepatocellular injury | – | – | – | – | – | – | – | – | – | – | – | – | Chemically defined spheroids (this study) 20x [5]: Positive; Cmax ([4]; human, in vivo): 30 nM |
| CC(CN1c2ccccc2Sc2ccccc21)N(C)C (stereo not drawn) [Promethazine] | – | Negative | Negative | Extensive | – | – | – | – | 60 nM | – | – | 5 | NEG | NEG | NEG | Negative | Non-hepatotoxic | – | indicated toxicity | 3 | – |
| Cn1nnc2c(C(N)=O)ncn2c1=O [Temozolomide] | – | Negative | – | Minimal | – | – | – | – | 26800 nM | Negative | – | 4 | NEG | NEG | NEG | Negative | Non-hepatotoxic | – | – | 1 | – |
| COC(c1ccccc1)(c1ccccc1)[C@H](Oc1nc(C)cc(C)n1)C(=O)O [Ambrisentan] | Negative | – | – | Extensive | – | – | – | – | 2270 nM | Negative | – | 7 | NEG | NEG | NEG | – | Non-hepatotoxic | – | – | – | hepatotoxicity evaluation in CD-spheroids ([5]; PHH spheroids, 1×, 5×, 20× cmax, 14 days repeated exposure, ATP): did not result in a significant reduction of hepatocyte viability; FDA (Severity) (clinical DILI in man; [24]): less DILI concern; Clinical DILI classification (Figure 5) (clinical DILI in man; [25]): DILI negative |
| CC(C)C(=O)Nc1ccc([N+](=O)[O-])c(C(F)(F)F)c1 [Flutamide] | Positive | Negative | Positive | Extensive | – | – | Hepatotoxic | – | 5430 nM | – | flagged as hepatotoxic | 8 | POS | POS | POS | Positive | Hepatocellular injury, Cholestatic injury or Mixed hepatitis | flagged as hepatotoxic | flagged as hepatotoxic | 3 | hepatotoxicity detection in 2D sandwich cultures of PHH (PHH 2D sandwich cultures; 100× cmax, 24 h, high content imaging, ref Xu et al., 2008): liver toxicity was not recognized; Suzuki et al. (2010) (clinical DILI in man; [15]): 2; FDA (Severity) (clinical DILI in man; [24]): most DILI concern; O'Brien et al. (2003) (clinical DILI in man; in vivo): Severely; hepatotoxicity evaluation in spheroids [7]: flagged as hepatotoxic; hepatotoxicity evaluation in spheroids [8]: flagged as hepatotoxic |
